The source of these data is BindingDB's records for doi:10.7270/Q20G3HMV (Burnham Center For Chemical Genomics, 2010).

The target of this test is Envelope glycoprotein gp160 (Human immunodeficiency virus 1, UniProt Q6QLK5). The test can be described thus: blockers of envelope-mediated cell fusion – luminescence reporter, SAR follow-up (AID 435029).
Sequence of Envelope glycoprotein gp160 (Q6QLK5 whole entry, the tested form may be a part): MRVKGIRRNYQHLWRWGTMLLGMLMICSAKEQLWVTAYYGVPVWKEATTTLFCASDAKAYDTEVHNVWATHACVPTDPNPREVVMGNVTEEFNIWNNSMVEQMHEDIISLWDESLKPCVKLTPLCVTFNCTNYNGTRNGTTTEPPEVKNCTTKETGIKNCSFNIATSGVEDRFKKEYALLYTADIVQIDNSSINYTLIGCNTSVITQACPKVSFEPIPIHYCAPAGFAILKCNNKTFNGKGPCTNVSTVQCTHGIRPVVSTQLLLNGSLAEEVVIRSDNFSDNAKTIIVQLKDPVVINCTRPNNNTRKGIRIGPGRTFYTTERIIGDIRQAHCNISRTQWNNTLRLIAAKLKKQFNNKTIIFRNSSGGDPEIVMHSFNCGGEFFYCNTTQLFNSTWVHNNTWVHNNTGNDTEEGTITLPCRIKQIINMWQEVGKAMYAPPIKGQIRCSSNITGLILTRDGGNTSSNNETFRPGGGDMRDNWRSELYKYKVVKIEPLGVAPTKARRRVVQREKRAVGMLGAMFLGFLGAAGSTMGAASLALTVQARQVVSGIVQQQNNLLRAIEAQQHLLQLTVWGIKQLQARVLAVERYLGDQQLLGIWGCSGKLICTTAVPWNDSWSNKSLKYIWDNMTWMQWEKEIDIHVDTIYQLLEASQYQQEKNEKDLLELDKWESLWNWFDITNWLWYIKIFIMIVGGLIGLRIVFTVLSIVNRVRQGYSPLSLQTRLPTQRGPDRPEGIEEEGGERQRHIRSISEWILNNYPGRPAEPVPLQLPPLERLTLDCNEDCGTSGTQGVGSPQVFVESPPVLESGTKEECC
On to `Cc1c(Cl)cccc1NS(=O)(=O)c1ccc2c(c1)C1C=CCC1C(c1ccc(C(=O)O)cc1)N2` (centres undefined), for which the IC50 (in general, the concentration at which inhibition is half-maximal) was determined as 5.4 µM.
For `CS(=O)(=O)C1=NSC2=NC(=O)/C(=C\c3cccn3-c3ccc(Cl)cc3)C(=N)N21`, 8.8 µM corresponded to half-maximal inhibition (IC50).
For the compound `COc1cc(/C=C2\SC(=O)N(c3ccccc3Cl)C2=O)cc([N+](=O)[O-])c1O`, half-maximal inhibition (IC50) required 7.5 µM.
The same measure for `N#C/C(=C\C1C=CC(=O)C([N+](=O)[O-])=C1)c1nc2ccccc2s1` (centres undefined): 4.65 µM; for `CCC(Sc1nc2ccsc2c(=O)n1Cc1ccc(C(=O)O)cc1)C(=O)Nc1ccc(C)c(Cl)c1` (centres undefined): 13.2 µM; for `CS(=O)(=O)C1=NSC2=NC(=O)/C(=C\c3ccc(OS(=O)(=O)c4ccccc4)cc3)C(=N)N21`: 12.7 µM.
`CCOc1cc(/C=C2\SC(=O)N(CC(=O)Nc3ccccc3F)C2=O)cc([N+](=O)[O-])c1O` had an IC50 of 8.3 µM.
The same measure for `O=C1Nc2ccc([N+](=O)[O-])cc2C1=NNc1ccccc1C(=O)O` [2-[2-(5-nitro-2-oxidanylidene-indol-3-yl)hydrazinyl]benzoic acid]: above 100 µM; for `CCOC(=O)C1=C(C)N=c2sc(=Cc3ccc(OCC(=O)O)cc3)c(=O)n2C1c1ccc(OC(C)C)cc1` (centres undefined) [2-[4-[[6-ethoxycarbonyl-7-methyl-3-oxo-5-(4-propan-2-yloxyphenyl)-5H-[1,3]thiazolo[3,2-a]pyrimidin-2-ylidene]methyl]phenoxy]acetic acid]: 4.45 µM; for `O=c1/c(=C/c2cc([N+](=O)[O-])cc([N+](=O)[O-])c2O)sc2nc3ccccc3n12` [2-[(2-hydroxy-3,5-dinitrophenyl)methylidene]-1-thiazolo[3,2-a]benzimidazolone]: 8.6 µM.
The same measure for `CCC(C)(C)C1CCc2c(sc(NC(=O)c3ccccc3C(=O)O)c2C#N)C1` (centres undefined) [2-[[3-cyano-6-(2-methylbutan-2-yl)-4,5,6,7-tetrahydro-1-benzothiophen-2-yl]carbamoyl]benzoic acid]: 7.3 µM; for `O=C(O)c1ccccc1C(=O)N(Cc1cccc(Oc2ccc(Cl)cc2)c1)[C@H]1CCCc2ccccc21` [2-[[[3-(4-chlorophenoxy)phenyl]methyl-[(1S)-1,2,3,4-tetrahydronaphthalen-1-yl]amino]-oxomethyl]benzoic acid]: 4.1 µM; for `COc1cc(CN=Nc2ccc(Cl)c(C(=O)O)c2)ccc1OC(=O)c1ccc(F)cc1` [2-chloro-5-[2-[[4-[(4-fluorophenyl)-oxomethoxy]-3-methoxyphenyl]methylidene]hydrazinyl]benzoic acid]: 30 µM.
With `CC(C)S(=O)(=O)C1=NSC2=NC(=O)/C(=C\c3ccc(-c4cccc(C(=O)O)c4)o3)C(=N)N21` [3-[5-[(Z)-(5-imino-7-oxo-3-propan-2-ylsulfonyl-[1,2,4]thiadiazolo[4,5-a]pyrimidin-6-ylidene)methyl]furan-2-yl]benzoic acid], the IC50 stood at 68 µM.
Then `O=[N+]([O-])c1cc([N+](=O)[O-])c2oc(-c3ccccc3)c(Br)c2c1O` [3-bromanyl-5,7-dinitro-2-phenyl-1-benzofuran-4-ol], with 2.5 µM.
The same measure for `O=C(O)CCCN1C(=O)/C(=C/c2ccc(-c3nc4ccccc4s3)o2)SC1=S` [4-[(5Z)-5-[[5-(1,3-benzothiazol-2-yl)furan-2-yl]methylidene]-4-oxo-2-sulfanylidene-1,3-thiazolidin-3-yl]butanoic acid]: 1 µM.
`CC(C)(C)c1cc(-c2cs/c(=N\c3ccccc3)n2Cc2ccc(C(=O)O)cc2)cc(C(C)(C)C)c1O` [4-[[4-(3,5-ditert-butyl-4-oxidanyl-phenyl)-2-phenylazanyl-1,3-thiazol-3-ium-3-yl]methyl]benzoic acid;bromide] returned an IC50 of 3.5 µM.
Then `Cc1ccc(S(=O)(=O)Oc2ccc(/C=C3/C(=N)N4C(=NC3=O)SN=C4S(C)(=O)=O)cc2)cc1` [4-methylbenzenesulfonic acid [4-[(Z)-(5-imino-3-methylsulfonyl-7-oxo-[1,2,4]thiadiazolo[4,5-a]pyrimidin-6-ylidene)methyl]phenyl] ester], with 8 µM; and `O=C1NC(=S)N(c2ccc(F)cc2)C(=O)C1=Cc1ccco1` [(5E)-1-(4-fluorophenyl)-5-(2-furanylmethylidene)-2-sulfanylidene-1,3-diazinane-4,6-dione], with 20 µM; and `Cc1cc(C)cc(-n2cccc2/C=C2/C(=N)N3C(=NC2=O)SN=C3S(C)(=O)=O)c1` [(6Z)-5-azanylidene-6-[[1-(3,5-dimethylphenyl)pyrrol-2-yl]methylidene]-3-methylsulfonyl-[1,2,4]thiadiazolo[4,5-a]pyrimidin-7-one], with 4.7 µM.
The same measure for `CC(C)S(=O)(=O)C1=NSC2=NC(=O)/C(=C\c3ccc(-c4ccccc4)o3)C(=N)N21` [(6Z)-5-imino-6-[(5-phenyl-2-furanyl)methylidene]-3-propan-2-ylsulfonyl-[1,2,4]thiadiazolo[4,5-a]pyrimidin-7-one]: 3.2 µM; for `CSc1nnc(-c2ccccc2N=Cc2c(C)[nH]n(-c3ccc4ccccc4c3)c2=O)c(=O)[nH]1` [MLS000540062]: 16.5 µM; for `Cc1ccc(-n2cccc2/C=C2/C(=N)N3C(=NC2=O)SN=C3S(C)(=O)=O)cc1Cl` [MLS000583163]: 4.6 µM.
As to `CC1(C)CC(=O)C2=C(C1)c1c(ccc3ccccc13)NC2c1cc([N+](=O)[O-])cc([N+](=O)[O-])c1O` (centres undefined) [MLS000716265], the IC50 was 2.4 µM. Against the preceding compound, the IC50 is about 1.9-fold lower.
The same measure for `Cc1c2c(=O)n(-c3nc4ccccc4s3)[nH]c2cc(=O)n1Cc1ccccc1` [MLS000762993]: 6.58 µM; for `COc1ccccc1NS(=O)(=O)c1cccc(-n2c(O)c(C=Nc3ccccc3C(=O)O)c3ccccc3c2=O)c1` [MLS000776209]: 2.3 µM; for `COc1ccc(OC)c(N2C(=O)C(=Cc3ccco3)C(=O)NC2=S)c1` [MLS001197216]: 15 µM.
`COc1cc(/C=N/NS(=O)(=O)c2ccc3ccccc3c2)ccc1OCc1ccc(C(=O)O)cc1` [MLS-0298745.0001] showed an IC50 of 31 µM.
In the case of `O=C(O)c1cc(N=NCc2ccc(-c3ccccc3)cc2)ccc1Cl` [MLS-0319671.0001], the IC50 worked out at 10 µM.
Consider `N#C/C(=C\c1ccc(OCc2ccc(Cl)cc2)cc1)C(=O)Nc1cccc(C(=O)O)c1` [MLS-0334991.0001], for which the IC50 was above 100 µM.
As to `CCS(=O)(=O)C1=NSC2=NC(=O)/C(=C\c3ccc(OS(=O)(=O)c4ccccc4)cc3)C(=N)N21` [MLS-0362442.0001], it took 8.4 µM to reach half-maximal inhibition (IC50).
The same measure for `CC(C)NC(=O)c1sc(=S)n2c1[nH]c(=O)c1ccc(C(=O)NCCc3ccc(Cl)cc3)cc12` [N8-[2-(4-chlorophenyl)ethyl]-5-oxidanylidene-N3-propan-2-yl-1-sulfanylidene-4H-[1,3]thiazolo[3,4-a]quinazoline-3,8-dicarboxamide]: 11.1 µM; for `O=C1NC(=S)N(C2CCCCC2)C(=O)C1=CNNC(=O)c1ccccc1O` [N'-[(E)-(1-cyclohexyl-4,6-dioxo-2-sulfanylidene-1,3-diazinan-5-ylidene)methyl]-2-hydroxybenzohydrazide]: 11.5 µM; for `O=C1NC(=S)N(c2ccc(F)cc2)C(=O)C1=Cc1ccoc1` [SMR000270574]: 11.3 µM.
Then `Cc1ccc(-n2c(O)c(C=Nc3ccccc3-c3n[nH]c(=S)[nH]c3=O)c3ccccc3c2=O)c(C)c1` [SMR000370443], with 9.8 µM; and `COC(=O)c1sc(-c2ccc(C(C)(C)C)cc2)cc1NC(=O)c1ccccc1C(=O)O` [SMR000456098], with 1.5 µM.
The same measure for `COc1cc(CN=Nc2ccc(Cl)c(C(=O)O)c2)ccc1OC(=O)c1ccccc1F` [SMR000589905]: 68 µM; for `COc1ccc(C(=O)Oc2ccc(CN=Nc3ccc(Cl)c(C(=O)O)c3)cc2OC)cc1` [SMR000589907]: 13 µM; for `CCOC(=O)c1sc(N2C(=O)C(=O)C(C(=O)c3ccc(C)o3)C2c2cccc([N+](=O)[O-])c2)nc1C` (centres undefined) [ethyl 4-methyl-2-[3-(5-methylfuran-2-yl)carbonyl-2-(3-nitrophenyl)-4-oxidanyl-5-oxidanylidene-2H-pyrrol-1-yl]-1,3-thiazole-5-carboxylate]: 5.1 µM.
